Reference: patent publication US6365359B1 (The Regents of the University of California, priority 1997, dated 2002)
Where a SMILES comes first, the peptide text is derived from it. [ ]: non-standard residue; d: D form. The star is where a group is joined. AMC = Cc1cc(=O)oc2cc(N*)ccc12; pGlu = O=C1CC[C@@H](C(=O)O)N1; Cbz = O=C(OCc1ccccc1)*

These compounds were tested on PrP^Sc formation in transiently transfected ScN2a cells.
Type: cell-based, mouse
For `CC(=O)O[C@@H]1[C@H](OC(C)=O)[C@@H](CO)O[C@H]1n1cnc2c(N)ncnc21` [Compound 32, 2′3′-Di-O-Acetyladenosine], the “Results (effect on transiently transfected ScN2a cells; inhibitory effect on PrP^Sc formation)” value was “Positive”. `NCCC(O)C(=O)NC1CC(N)C(OC2OC(CN)C(O)[C@H](O)[C@@H]2N)[C@H](OC2O[C@H](CO)[C@@H](O)[C@@H]2O)[C@@H]1O.O=S(=O)(O)O.O=S(=O)(O)O` (stereo partly drawn) [Compound 15, Butirosin Disulfate Salt, reference compound] was tested, and the “Results (effect on transiently transfected ScN2a cells; inhibitory effect on PrP^Sc formation)” value was “Negative”. [Glu]-TRH [Compound 55] was tested, and the “Results (effect on transiently transfected ScN2a cells; inhibitory effect on PrP^Sc formation)” value was “negative”. With “Hydroxyguanidino-purine Riboside [Compound 26]” the “Results (effect on transiently transfected ScN2a cells; inhibitory effect on PrP^Sc formation)” value was “Negative”. `NC(=NO)c1nc[nH]c1N` [Compound 37, Amino Imidazole Carobxamidoxime] was tested, and the “Results (effect on transiently transfected ScN2a cells; inhibitory effect on PrP^Sc formation)” value was “Negative”. `NC[C@@H]1CC[C@@H](N)[C@@H](O[C@H]2[C@H](O)[C@@H](O[C@H]3O[C@H](CO)[C@@H](O)[C@H](N)[C@H]3O)[C@H](N)C[C@@H]2N)O1` [Compound 22, Dibekacin, reference compound] was tested, and the “Results (effect on transiently transfected ScN2a cells; inhibitory effect on PrP^Sc formation)” value was “Negative”. In the case of `NC(=O)NC(NC(N)=O)C(=O)O` [Compound 38, Allentoic Acid], the “Results (effect on transiently transfected ScN2a cells; inhibitory effect on PrP^Sc formation)” value is reported as “Negative”. `Nc1ncnc2c1ncn2[C@H]1O[C@H](CO)[C@@H](O)[C@H]1O` [Compound 3, α-Adenosine] was tested, and the “Results (effect on transiently transfected ScN2a cells; inhibitory effect on PrP^Sc formation)” value was “Negative”. `Nc1nc2c(ncn2[C@@H]2O[C@H](COP(=O)(O)O[C@@H]3[C@H](O)[C@@H](CO)O[C@H]3n3cnc4c(=O)[nH]c(N)nc43)[C@@H](O)[C@H]2O)c(=O)[nH]1` [Compound 28, Guanylyl (2′5′)Guanosine] was tested, and the “Results (effect on transiently transfected ScN2a cells; inhibitory effect on PrP^Sc formation)” value was “Negative”. With “PGlu-Gly-Arg-Phe Amide ([pGlu]GRF-NH2; SMILES N=C(N)NCCC[C@H](NC(=O)CNC(=O)[C@@H]1CCC(=O)N1)C(=O)N[C@@H](Cc1ccccc1)C(N)=O) [Compound 20]” the “Results (effect on transiently transfected ScN2a cells; inhibitory effect on PrP^Sc formation)” value was “Negative”. In the case of “6-Morpholino-5-Nitroimidazol [Compound 66]”, the “Results (effect on transiently transfected ScN2a cells; inhibitory effect on PrP^Sc formation)” value is reported as “Negative”. For `Nc1ccn([C@@H]2O[C@H](COP(=O)(O)O[C@H]3[C@@H](O)[C@H](n4cnc5c(N)ncnc54)O[C@@H]3CO)[C@@H](O)[C@H]2O)c(=O)n1` [Compound 27, Adenylyl (3′5′)Cytidine], the “Results (effect on transiently transfected ScN2a cells; inhibitory effect on PrP^Sc formation)” value was “Negative”. With `CN[C@@H]1[C@@H](O)[C@@H](O[C@@H]2[C@@H](O)[C@H](O[C@H]3OC(CN)=CC[C@H]3N)[C@@H](N)C[C@H]2N)OC[C@]1(C)O` [Compound 23, Sisomycin, reference compound] the “Results (effect on transiently transfected ScN2a cells; inhibitory effect on PrP^Sc formation)” value was “Negative”. `[H]/N=C(/N)N[C@H]1[C@H](O)[C@@H](O)[C@H](O[C@@H]2O[C@@H](C)[C@](O)(C=O)[C@H]2O[C@@H]2O[C@@H](CO)[C@H](O)[C@@H](O)[C@@H]2NC)[C@@H](N/C(N)=N\[H])[C@@H]1O` [Compound 42, Streptomycin, reference compound] was tested, and the “Results (effect on transiently transfected ScN2a cells; inhibitory effect on PrP^Sc formation)” value was “Negative”. For `COc1ccc(OC)c(NC(=N)N)c1.O=C(O)O` [Compound 51, 2,5 Dimethoxy-phenylguanidine Carbonate], the “Results (effect on transiently transfected ScN2a cells; inhibitory effect on PrP^Sc formation)” value was “Negative”. In the case of `CC1(C)C(=O)NC(=O)N1SN1C(=O)NC(=O)C1(C)C` [Compound 44, 1,1, Thhiobis 5,5′ Dimethyl hydratoin], the “Results (effect on transiently transfected ScN2a cells; inhibitory effect on PrP^Sc formation)” value is reported as “Negative”. For `Cc1cc(=O)oc2cc(NC(=O)[C@H](CCCNC(=N)N)NC(=O)[C@H](Cc3ccccc3)NC(=O)OCc3ccccc3)ccc12.Cl` [Compound 53, Z-Phenyl-Arginyl-7-Amido-4-Methylcoumarin Hcl] (Cbz-Phe-Arg-{AMC}), the “Results (effect on transiently transfected ScN2a cells; inhibitory effect on PrP^Sc formation)” value was “Negative”. With `O=C(O)C(Cc1cnc[nH]1)N1C(=O)c2ccccc2C1=O` (racemic) [Compound 45, N Phrhaloyl-DL-Histidine] the “Results (effect on transiently transfected ScN2a cells; inhibitory effect on PrP^Sc formation)” value was “Negative”. For `O=C(NC(CO)Cc1c[nH]cn1)c1ccccc1` [Compound 48, n-alphabenzoyl-L-Histidinol], the “Results (effect on transiently transfected ScN2a cells; inhibitory effect on PrP^Sc formation)” value was “Negative”. In the case of “Leu-Asp-Val-Pro-Ser (LDVPS; printed: Leu-Asp-Val-Pro-Ser) [Compound 57]”, the “Results (effect on transiently transfected ScN2a cells; inhibitory effect on PrP^Sc formation)” value is reported as “Negative”. `NC[C@H]1O[C@H](O[C@H]2[C@H](O)[C@@H](O)[C@H](N)C[C@@H]2N)[C@H](N)[C@@H](O)[C@@H]1O` [Compound 9, Neamine] was tested, and the “Results (effect on transiently transfected ScN2a cells; inhibitory effect on PrP^Sc formation)” value was “Negative”. For `O=P(O)(O)O[C@H]1[C@@H](O)[C@H](n2cnc3c(O)ncnc32)O[C@@H]1CO` [Compound 36, Inosine 3′-Monophosphate], the “Results (effect on transiently transfected ScN2a cells; inhibitory effect on PrP^Sc formation)” value was “Negative”. For `CN(C)c1ncnc2c1ncn2[C@@H]1O[C@H](CO)[C@@H](N)[C@H]1O` [Compound 16, Puromycin Aminonucleoside], the “Results (effect on transiently transfected ScN2a cells; inhibitory effect on PrP^Sc formation)” value was “Negative”. With `NC[C@H]1O[C@H](O[C@H]2[C@H](O[C@@H]3O[C@H](CO)[C@@H](O)[C@H]3O)[C@@H](O)[C@H](N)C[C@@H]2N)[C@H](N)[C@@H](O)[C@@H]1O` [Compound 21, Ribostamycin, reference compound] the “Results (effect on transiently transfected ScN2a cells; inhibitory effect on PrP^Sc formation)” value was “Negative”. In the case of `OC[C@H]1O[C@@H](n2cnc3cncnc32)[C@H](O)[C@@H]1O` [Compound 18, Purine Riboside], the “Results (effect on transiently transfected ScN2a cells; inhibitory effect on PrP^Sc formation)” value is reported as “Positive”. In the case of `Cn1c(=O)c2c(ncn2C)n(C)c1=O` [Compound 13, Caffeine, reference compound], the “Results (effect on transiently transfected ScN2a cells; inhibitory effect on PrP^Sc formation)” value is reported as “Negative”. For `Nc1ncnc2c1ncn2[C@@H]1O[C@H](CO)[C@H]2OP(=O)([O-])O[C@H]21.[Na+]` [Compound 29, Adenosine 2′3′cyclic monophosphase sodium salt], the “Results (effect on transiently transfected ScN2a cells; inhibitory effect on PrP^Sc formation)” value was “Negative”. In the case of “[Mei(O)4, D-Lyss, Pho9]-Fragment 4-9 [Compound 30]”, the “Results (effect on transiently transfected ScN2a cells; inhibitory effect on PrP^Sc formation)” value is reported as “Negative”. In the case of `Cl.NC(N)=NC(=O)c1nc(Cl)c(N)nc1N` [Compound 69, Amiloride-HCI, reference compound], the “Results (effect on transiently transfected ScN2a cells; inhibitory effect on PrP^Sc formation)” value is reported as “Negative”. `Br.N=C(N)NCCC[C@H](NC(=O)OCc1ccccc1)C(=O)OCc1ccc([N+](=O)[O-])cc1` [Compound 54, Z-ARG-OBZL (P-NO2)HBR] was tested, and the “Results (effect on transiently transfected ScN2a cells; inhibitory effect on PrP^Sc formation)” value was “Negative”. With `NCC[C@H](O)C(=O)N[C@@H]1C[C@H](N)[C@@H](O[C@H]2O[C@H](CN)[C@@H](O)[C@H](O)[C@H]2O)[C@H](O)[C@H]1O[C@H]1O[C@H](CO)[C@@H](O)[C@H](N)[C@H]1O` [Compound 39, Amikacin, reference compound] the “Results (effect on transiently transfected ScN2a cells; inhibitory effect on PrP^Sc formation)” value was “Negative”. With “Naphtha (Terbutoxycarbonyl)-L-Arginine [Compound 2]” the “Results (effect on transiently transfected ScN2a cells; inhibitory effect on PrP^Sc formation)” value was “Negative”. For `N=C(N)c1ccc(Oc2ccc(-c3cc4ccc(C(=N)N)cc4[nH]3)cc2)cc1` [Compound 25, Amidinophenyl (6 Amidino-2-indolyl)Phenyl Ether], the “Results (effect on transiently transfected ScN2a cells; inhibitory effect on PrP^Sc formation)” value was “Negative”. For `O=P(O)(O)OC[C@H]1O[C@@H](n2cnc3c2ncn2ccnc32)[C@H](O)[C@@H]1O` [Compound 7, 1, N6-Ethenoadenosine-5′-Monophosphate], the “Results (effect on transiently transfected ScN2a cells; inhibitory effect on PrP^Sc formation)” value was “Positive”. With “2′-O-Anthramiloy Indenosine 3′5′-Cyclic Monophosphate [Compound 40]” the “Results (effect on transiently transfected ScN2a cells; inhibitory effect on PrP^Sc formation)” value was “Negative”. For `CCCCC(NC(=O)CCl)C(=O)O` (racemic) [Compound 6, Chloroacetyl-DL-Nortencine], the “Results (effect on transiently transfected ScN2a cells; inhibitory effect on PrP^Sc formation)” value was “Negative”. With `N=C(N)c1ccc(-c2cc3ccc(C(=N)N)cc3[nH]2)cc1` [Compound 14, 4′,6-Diamidino-2 Phenylindole] the “Results (effect on transiently transfected ScN2a cells; inhibitory effect on PrP^Sc formation)” value was “Negative”. In the case of `Nc1ccn([C@@H]2O[C@H](CO)[C@@H](OP(=O)(O)OC[C@H]3O[C@@H](n4cnc5c(=O)[nH]c(N)nc54)[C@H](O)[C@@H]3O)[C@H]2O)c(=O)n1` [Compound 10, Cytidylyl (3′5′) Guanosine], the “Results (effect on transiently transfected ScN2a cells; inhibitory effect on PrP^Sc formation)” value is reported as “Negative”. For H-Ala-Arg-Oh Acetate [Compound 5], the “Results (effect on transiently transfected ScN2a cells; inhibitory effect on PrP^Sc formation)” value was “Negative”. With BOC-Val-Gly-Arg-βNa-AcOH [Compound 49] the “Results (effect on transiently transfected ScN2a cells; inhibitory effect on PrP^Sc formation)” value was “Negative”. `CN1C(=O)C(CCCNC(=N)N)NC1=S.Cl` (racemic) [Compound 34, MTH-DL-Arginine HCI] was tested, and the “Results (effect on transiently transfected ScN2a cells; inhibitory effect on PrP^Sc formation)” value was “Negative”. `O=C(O)/C=C/c1c[nH]cn1` [Compound 1, Urocanic Acid] was tested, and the “Results (effect on transiently transfected ScN2a cells; inhibitory effect on PrP^Sc formation)” value was “Negative”. `Nc1ccc(Cc2ccc(N)cc2[N+](=O)[O-])cc1` [Compound 47, 3 mitro 4,4′ methylamediamiline] was tested, and the “Results (effect on transiently transfected ScN2a cells; inhibitory effect on PrP^Sc formation)” value was “Negative”. In the case of `CC(=O)O[C@@H]1[C@H](OC(C)=O)[C@@H](CO)O[C@H]1n1cnc2c(=O)[nH]c(N)nc21` [Compound 17, 2′3′-Di-O-Acetylguanoside], the “Results (effect on transiently transfected ScN2a cells; inhibitory effect on PrP^Sc formation)” value is reported as “Negative”. With `NC(=O)c1ccc(C(=O)O)cc1C(=O)O` [Compound 41, Trimellitic Acid Amide] the “Results (effect on transiently transfected ScN2a cells; inhibitory effect on PrP^Sc formation)” value was “Negative”.
